What was measured:
Type in all cases: in vivo
[1] = system: tobacco budworm (Heliothis virescens); assay: Insecticidal test for tobacco budworm (cotton cotyledon leaf-disc dip); conditions: 400 ppm, cotton cotyledon leaf-dip, 2nd instar larvae, 5 days
[2] = system: beet armyworm (Spodoptera exigua); assay: Insecticidal test for beet armyworm (treated lepidopteran diet)
[3] = system: cabbage looper (Trichoplusia ni); assay: Insecticidal test for cabbage looper (cabbage leaf-disc dip)
[4] = system: cotton aphid (Aphis gossvpii); assay: Insecticidal test for cotton aphid (squash cotyledon spray)
[5] = system: Sweetpotato Whitefly (Bemisia tabacia); assay: Insecticidal test for Sweetpotato Whitefly (cotton plant spray)
[6] = system: Brown Planthopper (Nilaparvata lugens); assay: Insecticidal test for Brown Planthopper (rice seedling roots in test solution)
[7] = system: Green Leafhopper (Nephotettix cincticeps); assay: Insecticidal test for Green Leafhopper (rice seedling roots in test solution)
[8] = system: two-spotted spider mite (Tetranychus urticae); assay: Insecticidal test for two-spotted spider mite, ovicide method; conditions: 2.5 ppm (table footnote), ovicide method on cotton leaf discs, 6 days
[9] = 400 ppm, treated diet, second-instar larvae, 5 days
[10] = 400 ppm, cabbage leaf-dip, 2nd instar larvae, 5 days
[11] = 50 ppm spray on infested squash cotyledons, 3 days, population reduction versus untreated
[12] = 200 ppm spray on cotton plants, 13 days, reduction of large nymphs
[13] = 10 ppm test solution, rice seedling roots, 3rd instar nymphs, mortality at 6 days

| Compound | TBW: activity at 400 ppm against tobacco budworm (% Control rating) [1] | BAW: activity at 400 ppm against beet armyworm (% Control rating) [2, 9] | CL: activity at 400 ppm against cabbage looper (% Control rating) [3, 10] | CA: activity at 50 ppm against cotton aphid (% Control rating) [4, 11] | WF: activity at 200 ppm against whitefly (% Control rating) [5, 12] | BPH: activity at 10 ppm against brown planthopper (% Control rating) [6, 13] | GLH: activity at 10 ppm against green leafbopper (% Control rating) [7, 13] | SM: activity at 2.5 ppm against two-spotted spider mite (% Control rating) [8] | BAW: activity at 400 ppm against beet armyworm (% Control rating) ([2]; in vivo) | CL: activity at 400 ppm against cabbage looper (% Control rating) ([3]; in vivo) | CA: activity at 50 ppm against cotton aphid (% Control rating) ([4]; in vivo) | WF: activity at 200 ppm against whitefly (% Control rating) ([5]; in vivo) | BPH: activity at 10 ppm against brown planthopper (% Control rating) ([6]; in vivo) | GLH: activity at 10 ppm against green leafbopper (% Control rating) ([7]; in vivo) |
| --- | --- | --- | --- | --- | --- | --- | --- | --- | --- | --- | --- | --- | --- | --- |
| Cc1cc(F)ccc1C#Cc1sc(-c2nc(-c3c(F)cccc3Cl)nn2C)c(Cl)c1Cl [Compound 52] | A (90-100) | A (90-100) | A (90-100) | D (60-69) | F (less than 50) |  |  |  |  |  |  |  |  |  |
| CCCOc1ccc(C#Cc2sc(-c3nc(-c4c(F)cccc4Cl)nn3C)c(Cl)c2Cl)cc1 [Compound 15] | F (less than 50) | D (60-69) | D (60-69) | D (60-69) | F (less than 50) | F (less than 50) | F (less than 50) |  |  |  |  |  |  |  |
| CCCc1ccc(C#Cc2cc(C)c(-c3nc(-c4c(F)cccc4Cl)nn3C)s2)cc1 [Compound 72] |  | A (90-100) | B (80-89) | C (70-79) | F (less than 50) | F (less than 50) |  | F (less than 50) |  |  |  |  |  |  |
| CCCCC#Cc1cncc(-c2nc(-c3c(Cl)cncc3Cl)nn2C)c1 [Compound 86] |  |  |  | E (50-59) | F (less than 50) | F (less than 50) | F (less than 50) | C (70-79) |  |  |  |  |  |  |
| CCCc1ccc(C#Cc2ccc(-c3nc(-c4c(F)cccc4Cl)nn3C)c(Cl)c2Cl)cc1 [Compound 90] |  |  |  |  |  |  |  |  | A (key: A: 90-100; B: 80-89; C: 70-79; D: 60-69; E: 50-59; F: less than 50; G: inactive) | A (key: A: 90-100; B: 80-89; C: 70-79; D: 60-69; E: 50-59; F: less than 50; G: inactive) | B (key: A: 90-100; B: 80-89; C: 70-79; D: 60-69; E: 50-59; F: less than 50; G: inactive) | F (key: A: 90-100; B: 80-89; C: 70-79; D: 60-69; E: 50-59; F: less than 50; G: inactive) | E (key: A: 90-100; B: 80-89; C: 70-79; D: 60-69; E: 50-59; F: less than 50; G: inactive) | F (key: A: 90-100; B: 80-89; C: 70-79; D: 60-69; E: 50-59; F: less than 50; G: inactive) |
| Cn1nc(-c2c(F)cccc2Cl)nc1-c1sc(C#Cc2ccc(F)c(C(F)(F)F)c2)c(Cl)c1Cl [Compound 47] | A (90-100) | A (90-100) | A (90-100) | C (70-79) |  | F (less than 50) |  |  |  |  |  |  |  |  |
| CCCc1ccc(C#Cc2sc(-c3nc(-c4c(F)cccc4Cl)nn3C)c(Cl)c2Cl)cc1 [Compound 14] | A (90-100) | A (90-100) | A (90-100) | A (90-100) | F (less than 50) | F (less than 50) |  |  |  |  |  |  |  |  |
| COc1ccc(C#Cc2sc(-c3nc(-c4c(Cl)cncc4Cl)nn3C)c(Cl)c2Cl)cc1 [Compound 87] | F (less than 50) | F (less than 50) | F (less than 50) |  |  |  |  |  |  |  |  |  |  |  |
